What was measured:
Format in all cases: cell-based
[1] = target: Sodium-dependent serotonin transporter (Homo sapiens) (UniProt P31645); assay: Inhibition of human SERT expressed in HEK293 cells using 4-[4-(Dimethylamino)phenyl]-1-methyl pyridinium as substrate assessed as fluorescent intensity at 1 uM after 3 hrs relative to control
[2] = target: Sodium-dependent serotonin transporter (Homo sapiens) (UniProt P31645); assay: Inhibition of human SERT expressed in HEK293 cells using 4-[4-(Dimethylamino)phenyl]-1-methyl pyridinium as substrate assessed as fluorescent intensity at 0.1 uM after 3 hrs relative to control
[3] = target: Sodium-dependent serotonin transporter (Homo sapiens) (UniProt P31645); assay: Inhibition of human SERT expressed in HEK293 cells using 4-[4-(Dimethylamino)phenyl]-1-methyl pyridinium as substrate assessed as fluorescent intensity at 10 uM after 3 hrs relative to control

Sodium-dependent serotonin transporter (Homo sapiens), sequence (P31645 whole entry, looked up): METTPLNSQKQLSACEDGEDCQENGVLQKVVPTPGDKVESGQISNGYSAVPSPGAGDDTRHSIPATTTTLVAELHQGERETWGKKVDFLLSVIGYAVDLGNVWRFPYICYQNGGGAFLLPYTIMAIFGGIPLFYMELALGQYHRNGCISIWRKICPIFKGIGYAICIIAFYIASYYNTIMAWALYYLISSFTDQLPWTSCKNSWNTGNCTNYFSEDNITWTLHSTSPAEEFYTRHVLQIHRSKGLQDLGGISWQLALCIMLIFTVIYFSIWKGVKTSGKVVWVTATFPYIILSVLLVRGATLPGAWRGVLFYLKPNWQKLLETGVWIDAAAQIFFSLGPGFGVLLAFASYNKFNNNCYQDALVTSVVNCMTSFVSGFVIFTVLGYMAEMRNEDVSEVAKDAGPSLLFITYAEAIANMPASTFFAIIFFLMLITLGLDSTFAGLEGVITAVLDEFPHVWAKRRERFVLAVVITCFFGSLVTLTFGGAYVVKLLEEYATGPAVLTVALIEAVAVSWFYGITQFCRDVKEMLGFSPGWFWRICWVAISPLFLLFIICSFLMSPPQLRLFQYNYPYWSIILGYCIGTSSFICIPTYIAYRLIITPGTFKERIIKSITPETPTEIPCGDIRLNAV

Compound	RFU [1]	RFU [2]	RFU [3]
CN1c2ccccc2C(NCCCCCCC(=O)O)c2ccc(Cl)cc2S1(=O)=O (centres undefined)	1.11	–	–
COc1cc(C[C@@H](CO)c2cc(C(=O)O)cc(OC)c2O)ccc1O	0.997	1.01	0.873
COC(=O)CCCNC(=O)/C=C\c1ccc(O)c(OC)c1	1.08	1.04	1.06
COC(=O)CCCNC(=O)/C=C/c1ccc(O)c(OC)c1	1.07	1.02	1.04
COc1cc([C@H]2Oc3c(OC)cc(C(=O)O)cc3[C@@H]2CO)ccc1O	1.01	1.04	1.09
CC(C)C[C@]12C[C@]3(O)O[C@@]1(OC(=O)C[C@H]2C)[C@H](O)[C@]3(C)O	0.883	0.858	0.928
COc1cc([C@@H]2Oc3c(OC)cc(C(=O)O)cc3[C@H]2CO)ccc1O	1.03	0.984	1.06
